# Tested on: Escherichia coli strain 1075
# Assay: Protecting effect in experimental mice infections (E. coli strain 1075)
# Assay type: in vivo
# Conditions: sc, 120 h, female albino mice 8 g-24 g, infected intraperitoneally with E. coli strain 1075, treated subcutaneously, survival on 5th day after infection, highest dosage tested usually 300 mg/kg
# Protocol: Protecting Effect in Experimental Mice Infections:
# For a reference's sake, with regard to antimicrobial activity of the typical compound which falls within the category of the compounds of the formula (I) of the present invention, there are illustrated in vivo tests in which active ingredient are the following compounds.
# The test compound against in vivo against the species Escherichia coli was tested using female albino mice weighing 8 g-24 g.
# The mice were infected by intraperitoneal route with standardized suitable diluted bacterial suspensions of E. coli strain 1075 and then treated subcutaneously with the test compound.
# The ED50 (mg/kg) was determined from the numbers of mice surviving on the 5th day after infection. The highest dosage tested was usually 300 mg/kg.
row,SMILES,ED50 [mg/kg]
1,"CC(O)(CO)C(O)C12NC(=O)C(O)(NC1=O)C(Br)(CBr)CCO2 (centres unmarked) [Compound 2, 5,11-dibromo-5,11-dihydrobicyclomycin]",60
2,"C=C1CCOC2(C(O)C3(C)COC(C)(C)O3)NC(=O)C1(O)NC2=O (centres unmarked) [Compound 1, 2',3'-O,O-isopropylidenebicyclomycin]",65

# From patent publication US4215043A, “Bicyclomycin derivatives” (Fujisawa Pharmaceutical Co., Ltd., priority 1975, dated 1980)
